Results taken from ChEMBL document CHEMBL3769371, “1-[(2E)-3-Phenylprop-2-enoyl]-1H-benzimidazoles as anticancer agents: synthesis, crystal structure analysis and binding studies of the most potent anticancer molecule with serum albumin” (Medchemcomm, 2015).

What was measured:
[1] = Cytotoxicity against human SW620 cells after 48 hrs by SRB assay; type: functional; conditions: SW-620, 48 h
[2] = Cytotoxicity against human UO31 cells assessed as cell growth at 10^-5 M after 48 hrs by SRB assay; type: functional; conditions: UO-31, 48 h, read-out: Activity
[3] = Cytotoxicity against human BT549 cells assessed as cell growth at 10^-5 M after 48 hrs by SRB assay; type: functional; conditions: BT-549, 48 h, read-out: Activity
K562 = assay: Cytotoxicity against human K562 cells assessed as cell growth at 10^-5 M after 48 hrs by SRB assay; type: functional; conditions: K562, 48 h, read-out: Activity
[4] = Antiproliferative activity against human TK10 cells at 10'5 M; type: functional, TK-10
Albumin [5] = molecular target: T1, Albumin (Homo sapiens, UniProt P02768); assay: Binding affinity to human serum albumin at 0.25 uM at 303 K by fluorescence microscopic analysis in the presence of Ni2+; type: ADME; conditions: isolated protein
NCI-H322M = assay: Cytotoxicity against human NCI-H322M cells after 48 hrs by SRB assay; type: functional
Albumin [6] = molecular target: T1, Albumin; assay: Binding affinity to human serum albumin assessed Stern-Volmer quenching constant at 0.25 to 2 uM at 288 K by fluorescence microscopic analysis; type: ADME; conditions: isolated protein
[7] = Cytotoxicity against human SF295 cells after 48 hrs by SRB assay; type: functional; conditions: SF-295, 48 h
[8] = Cytotoxicity against human OVCAR4 cells assessed as cell growth at 10^-5 M after 48 hrs by SRB assay; type: functional; conditions: OVCAR-4, 48 h, read-out: Activity
NCI-H226 = assay: Cytotoxicity against human NCI-H226 cells assessed as cell growth at 10^-5 M after 48 hrs by SRB assay; type: functional; conditions: NCI-H226, 48 h, read-out: Activity
[9] = Cytotoxicity against human HOP92 cells after 48 hrs by SRB assay; type: functional; conditions: HOP-92, 48 h
Malme-3M = assay: Antiproliferative activity against human MALME-3M cells at 10'5 M; type: functional
SK-MEL-28 = assay: Cytotoxicity against human SK-MEL-28 cells assessed as cell growth at 10^-5 M after 48 hrs by SRB assay; type: functional; conditions: SK-MEL-28, 48 h, read-out: Activity
M14 = assay: Cytotoxicity against human M14 cells after 48 hrs by SRB assay; type: functional; conditions: M14, 48 h
[10] = Cytotoxicity against human HOP62 cells after 48 hrs by SRB assay; type: functional; conditions: HOP-62, 48 h
[11] = Cytotoxicity against human RPMI8226 cells after 48 hrs by SRB assay; type: functional; conditions: RPMI-8226, 48 h
A498 = assay: Cytotoxicity against human A498 cells after 48 hrs by SRB assay; type: functional; conditions: A498, 48 h
SN12C = assay: Cytotoxicity against human SN12C cells assessed as cell growth at 10^-5 M after 48 hrs by SRB assay; type: functional; conditions: read-out: Activity
Albumin [12] = molecular target: T1, Albumin; assay: Binding affinity to human serum albumin assessed Stern-Volmer quenching constant at 0.25 to 2 uM at 308 K by fluorescence microscopic analysis; type: ADME; conditions: isolated protein
KM12 = assay: Cytotoxicity against human KM12 cells after 48 hrs by SRB assay; type: functional; conditions: KM12, 48 h
[13] = Cytotoxicity against human UACC62 cells after 48 hrs by SRB assay; type: functional; conditions: UACC-62, 48 h
[14] = Antiproliferative activity against human Hs 578T cells at 10'5 M; type: functional
[15] = Cytotoxicity against human SNB19 cells assessed as cell growth at 10^-5 M after 48 hrs by SRB assay; type: functional; conditions: SNB-19, 48 h, read-out: Activity
[16] = Cytotoxicity against human Hs 578T cells assessed as cell growth at 10^-5 M after 48 hrs by SRB assay; type: functional; conditions: read-out: Activity
[17] = Cytotoxicity against human SF539 cells after 48 hrs by SRB assay; type: functional; conditions: SF-539, 48 h
[18] = Cytotoxicity against human RPMI8226 cells assessed as cell growth at 10^-5 M after 48 hrs by SRB assay; type: functional; conditions: RPMI-8226, 48 h, read-out: Activity
CCRF-CEM = assay: Cytotoxicity against human CCRF-CEM cells assessed as cell growth at 10^-5 M after 48 hrs by SRB assay; type: functional; conditions: read-out: Activity
[19] = Cytotoxicity against human SF295 cells assessed as cell growth at 10^-5 M after 48 hrs by SRB assay; type: functional; conditions: SF-295, 48 h, read-out: Activity
[20] = Cytotoxicity against human MOLT4 cells after 48 hrs by SRB assay; type: functional; conditions: MOLT-4, 48 h
[21] = read-out: LC50 (the source's name)

T1 sequence (P02768 whole entry): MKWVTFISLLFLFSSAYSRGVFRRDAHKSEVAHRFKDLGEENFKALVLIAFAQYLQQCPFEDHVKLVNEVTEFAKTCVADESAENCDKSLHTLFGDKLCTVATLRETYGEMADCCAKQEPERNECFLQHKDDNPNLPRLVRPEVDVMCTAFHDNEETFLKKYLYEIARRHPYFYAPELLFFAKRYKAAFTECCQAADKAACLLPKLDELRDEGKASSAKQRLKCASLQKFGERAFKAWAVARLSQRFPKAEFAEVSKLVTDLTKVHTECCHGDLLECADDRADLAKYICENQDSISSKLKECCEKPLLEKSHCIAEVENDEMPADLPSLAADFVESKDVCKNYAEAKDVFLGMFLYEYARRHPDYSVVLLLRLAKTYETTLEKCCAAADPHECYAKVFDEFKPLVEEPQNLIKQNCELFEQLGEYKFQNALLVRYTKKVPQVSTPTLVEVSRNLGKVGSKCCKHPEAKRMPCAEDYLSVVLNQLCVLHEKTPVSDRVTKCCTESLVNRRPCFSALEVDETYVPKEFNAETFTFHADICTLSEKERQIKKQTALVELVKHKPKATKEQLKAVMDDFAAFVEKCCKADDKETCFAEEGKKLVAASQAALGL

Q: With `O=C(/C=C/c1ccccc1)n1c(-c2ccc(Cl)cc2)nc2ccccc21` as the compound, how does the GI50 [1] read?
A: The GI50 was 1.44 µM.

Q: What about the TGI [1] of the same compound?
A: The TGI was 2.93 µM.

Q: What about the CC50 [1, 21] of the same compound?
A: Its CC50 is 5.97 µM.

Q: And the growth at 10 µM [2]?
A: The growth at 10 µM was -39%.

Q: And the growth at 10 µM [3]?
A: The growth at 10 µM was -50.5%.

Q: What about the growth at 10 µM (K562) of the same compound?
A: The growth at 10 µM was 39.8%.

Q: What about the “growth inhibition (GI)” value [4] of the same compound?
A: Its value is 81.42%.

Q: What about the K (Albumin [5]) of the same compound?
A: Its K is 5.35 ×10³ /mol.

Q: What about the GI50 (NCI-H322M) of the same compound?
A: Its GI50 is 1.91 µM.

Q: What about the TGI (NCI-H322M) of the same compound?
A: Its TGI is 4.89 µM.

Q: What about the CC50 (NCI-H322M; [21]) of the same compound?
A: Its CC50 is 20 µM.

Q: What about the KSV (Albumin [6]) of the same compound?
A: The KSV was 2.03 ×10⁵ L/mol.

Q: And the GI50 [7]?
A: The GI50 was 2.1 µM.

Q: And the TGI [7]?
A: Its TGI is 6.14 µM.

Q: What about the CC50 [7, 21] of the same compound?
A: The CC50 was 42.5 µM.

Q: And the growth at 10 µM [8]?
A: The growth at 10 µM was 30%.

Q: And the growth at 10 µM (NCI-H226)?
A: Its growth at 10 µM is -55.3%.

Q: What about the GI50 [9] of the same compound?
A: Its GI50 is 2.72 µM.

Q: What about the TGI [9] of the same compound?
A: The TGI was 5.17 µM.

Q: And the CC50 [9, 21]?
A: The CC50 was 9.81 µM.

Q: What about the “growth inhibition (GI)” value (Malme-3M) of the same compound?
A: The value was 84.12%.

Q: And the growth at 10 µM (SK-MEL-28)?
A: Its growth at 10 µM is -65.4%.

Q: What about the GI50 (M14) of the same compound?
A: The GI50 was 1.63 µM.

Q: What about the TGI (M14) of the same compound?
A: Its TGI is 5.74 µM.

Q: What about the CC50 (M14; [21]) of the same compound?
A: Its CC50 is 26 µM.

Q: What about the GI50 [10] of the same compound?
A: Its GI50 is 1.89 µM.

Q: And the TGI [10]?
A: The TGI was 7.3 µM.

Q: And the CC50 [10, 21]?
A: The CC50 was 35.1 µM.

Q: What about the GI50 [11] of the same compound?
A: The GI50 was 0.61 µM.

Q: What about the TGI [11] of the same compound?
A: The TGI was 3.82 µM.

Q: What about the CC50 [11, 21] of the same compound?
A: Its CC50 is greater than 100 µM.

Q: And the GI50 (A498)?
A: The GI50 was 2.05 µM.

Q: And the TGI (A498)?
A: The TGI was 7.63 µM.

Q: And the CC50 (A498; [21])?
A: Its CC50 is 28.4 µM.

Q: What about the growth at 10 µM (SN12C) of the same compound?
A: Its growth at 10 µM is -48.5%.

Q: What about the KSV (Albumin [12]) of the same compound?
A: Its KSV is 1.14 ×10⁵ L/mol.

Q: And the GI50 (KM12)?
A: Its GI50 is 1.51 µM.

Q: What about the TGI (KM12) of the same compound?
A: The TGI was 3.71 µM.

Q: What about the CC50 (KM12; [21]) of the same compound?
A: Its CC50 is 9.16 µM.

Q: And the GI50 [13]?
A: Its GI50 is 1.47 µM.

Q: And the TGI [13]?
A: Its TGI is 3.42 µM.

Q: And the CC50 [13, 21]?
A: The CC50 was 7.93 µM.

Q: And the “growth inhibition (GI)” value [14]?
A: Its value is 80.03%.

Q: What about the growth at 10 µM [15] of the same compound?
A: The growth at 10 µM was 41.1%.

Q: What about the growth at 10 µM [16] of the same compound?
A: Its growth at 10 µM is 20%.

Q: What about the GI50 [17] of the same compound?
A: The GI50 was 2.5 µM.

Q: And the TGI [17]?
A: Its TGI is 6.46 µM.

Q: What about the CC50 [17, 21] of the same compound?
A: The CC50 was 26.1 µM.

Q: And the growth at 10 µM [18]?
A: Its growth at 10 µM is -31.1%.

Q: What about the growth at 10 µM (CCRF-CEM) of the same compound?
A: Its growth at 10 µM is -23.9%.

Q: And the growth at 10 µM [19]?
A: Its growth at 10 µM is -52%.

Q: And the GI50 [20]?
A: The GI50 was 1.13 µM.

Q: And the TGI [20]?
A: Its TGI is 6.73 µM.

Q: What about the CC50 [20, 21] of the same compound?
A: The CC50 was greater than 100 µM.
